Laboratory results from patent US10287269B2, “Pyrazolyl pyrimidinone compounds as PDE2 inhibitors” (Merck Sharp & Dohme Corp., priority 2015, dated 2019).
Where two headings read alike, the source gives them in different places.

Target: T1, human PDE2A1 (Homo sapiens, UniProt O00408)
T1 construct: GST; purchased BPS Bioscience (San Diego, Calif.) 60020; host or cells: insect cells
Assay: PDE2 IMAP FP inhibition assay, human enzyme (PDE selectivity panel format)
Type: biochemical
Method: Selectivity for PDE2, as compared to other PDE families, was assessed using the IMAP® technology. Human PDE10A2 enzyme was prepared from cytosolic fractions of transiently transfected HEK cells. All other PDE's were GST Tag human enzyme expressed in insect cells and were obtained from BPS Bioscience (San Diego, Calif.): PDE1A (Cat#60010), human PDE2A1 (Cat#60020), PDE3A (Cat#60030), PDE4A1A (Cat#60040), PDE5A1 (Cat#60050), PDE6C (Cat#60060), PDE7A (Cat#60070), PDE8A1 (Cat#60080), PDE9A2 (Cat#60090), PDE11A4 (Cat#60110).
Assays for PDE 1 through 11 were performed in parallel at room temperature in 384-well microtiter plates with an incubation volume of 20.2 μL. Solutions of test compounds were prepared in DMSO and serially diluted with DMSO to yield 30 μL of each of ten solutions differing by 3-fold in concentration, at 32 serial dilutions per plate. […] A Labcyte POD 810 (Labcyte, Sunnyvale, Calif.) was used to dispense 200 nL from each well of the titration plate to make eleven copies of the assay plate for each titration, one copy for each PDE enzyme. A solution of each enzyme (dilution from aliquots, sufficient to produce 20% substrate conversion) and a separate solution of FAM-labeled cAMP or FAM-labeled cGMP from Molecular Devices (Sunnyvale, Calif., product # R7506 or cGMP#R7508), at a final concentration of 50 nM were made in the assay buffer (10 mM Tris HCl, pH 7.2, 10 mM MgCl2, 0.05% NaN3 0.01% Tween-20, and 1 mM DTT). Note that the substrate for PDE2 is 50 nM FAM cAMP containing 1000 nM of cGMP. The enzyme and the substrate were then added to the assay plates in two consecutive additions of 10 μL and then shaken to mix. The reaction was allowed to proceed at room temperature for 60 minutes. A binding solution was then made from the kit components, comprised of 80% Solution A, 20% Solution B and binding reagent at a volume of 1/600 the total binding solution. The enzymatic reaction was stopped by addition of 60 μL of the binding solution to each well of the assay plate. The plates were sealed and shaken for 10 seconds. The plates were incubated at room temperature for one hour, then the parallel and perpendicular fluorescence was measured using a Tecan Genios Pro plate reader (Tecan, Switzerland). The apparent inhibition constants for the compounds against all 11 PDE's was determined from the parallel and perpendicular fluorescent readings as described for PDE10 FP assay using the following apparent KM values for each enzyme and substrate combination: PDE1A (FAM cGMP) 70 nM, human PDE2A1 (FAM cAMP) 10,000 nM, PDE3A (FAM cAMP) 50 nM, PDE4A1A (FAM cAMP) 1500 nM, PDE5A1 (FAM cGMP) 400 nM, PDE6C (FAM cGMP) 700 nM, PDE7A (FAM cAMP) 150 nM, PDE8A1 (FAM cAMP) 50 nM, PDE9A2 (FAM cGMP) 60 nM, PDE10A2 (FAM cAMP) 150 nM, PDE11A4 (FAM cAMP) 1000 nM. The intrinsic PDE2 inhibitory activity of a compound which may be used in accordance with the present invention may be determined by these assays. […]

[1] = Lab B, read-out: Human PDE2 Ki (nM) Lab B
[2] = Lab A, read-out: Human PDE2 Ki (nM) Lab A

T1 sequence (O00408 1-920 isoform O00408-2): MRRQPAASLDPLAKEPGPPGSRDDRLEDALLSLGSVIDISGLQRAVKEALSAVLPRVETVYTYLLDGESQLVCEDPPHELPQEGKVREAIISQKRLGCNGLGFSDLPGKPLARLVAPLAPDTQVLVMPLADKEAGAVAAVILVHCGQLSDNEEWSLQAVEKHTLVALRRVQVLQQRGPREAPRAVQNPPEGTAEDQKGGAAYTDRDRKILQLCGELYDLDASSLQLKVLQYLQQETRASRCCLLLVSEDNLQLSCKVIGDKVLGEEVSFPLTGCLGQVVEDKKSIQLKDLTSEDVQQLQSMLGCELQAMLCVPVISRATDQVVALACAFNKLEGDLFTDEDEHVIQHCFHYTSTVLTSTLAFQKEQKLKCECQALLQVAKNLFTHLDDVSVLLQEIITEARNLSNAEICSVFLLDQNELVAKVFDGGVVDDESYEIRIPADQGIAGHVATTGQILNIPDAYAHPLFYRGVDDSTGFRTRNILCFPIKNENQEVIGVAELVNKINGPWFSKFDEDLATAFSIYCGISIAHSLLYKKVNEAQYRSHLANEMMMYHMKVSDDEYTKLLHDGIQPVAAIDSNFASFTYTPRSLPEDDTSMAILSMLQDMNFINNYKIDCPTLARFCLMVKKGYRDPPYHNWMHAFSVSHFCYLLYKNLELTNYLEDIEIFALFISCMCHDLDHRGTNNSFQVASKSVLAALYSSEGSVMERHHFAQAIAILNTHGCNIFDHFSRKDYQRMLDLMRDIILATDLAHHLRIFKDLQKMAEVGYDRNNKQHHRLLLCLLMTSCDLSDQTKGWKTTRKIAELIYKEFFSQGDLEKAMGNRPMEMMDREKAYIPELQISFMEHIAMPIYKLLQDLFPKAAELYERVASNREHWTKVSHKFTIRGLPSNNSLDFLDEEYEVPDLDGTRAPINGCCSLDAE

| Ki [1] | Ki [2] | Compound |
| --- | --- | --- |
| 441 nM |  | Cc1nc(-c2ccn(C(C)c3ccc(C(F)(F)F)cc3)n2)cc(=O)[nH]1 (single isomer, unassigned) [Example 77, (R)- or (S)-2-methyl-6-(1-(1-(4-(trifluoromethyl)phenyl)ethyl)-1H-pyrazol-3-yl)pyrimidin-4(3H)-one] |
| 87.6 nM |  | Cc1nc(-n2cc(C(c3ccc(C(F)(F)F)cc3)C(C)C)cn2)cc(=O)[nH]1 (stereo not drawn) [Example 130] |
| 5.1 nM | 7.1 nM | COc1ccc(Cc2nc(-c3cnn(C(C)c4ccc(C(F)(F)F)cc4F)c3)cc(=O)[nH]2)cc1 (single isomer, unassigned) [Example 138, (R)- or (S)-6-(1-(1-(2-fluoro-4-(trifluoromethyl)phenyl)ethyl)-1H-pyrazol-4-yl)-2-(4-methoxybenzyl)pyrimidin-4(3H)-one] |
|  | 61 nM | Cc1ccc(C(C)n2cc(-c3cc(=O)[nH]c(C)n3)cn2)c(Cl)c1 (single isomer, unassigned) [Example 148, (R)- or (S)-6-(1-(1-(2-chloro-4-methylphenyl)ethyl)-1H-pyrazol-4-yl)-2-methylpyrimidin-4(3H)-one] |
|  | 3.5 nM | COc1cc(Cc2nc(-c3cnn(C(C)c4ccc(C(F)(F)F)cc4F)c3)cc(=O)[nH]2)ccc1F (single isomer, unassigned) [Example 142, (R)- or (S)-2-(4-fluoro-3-methoxybenzyl)-6-(1-(1-(2-fluoro-4-(trifluoromethyl)phenyl)ethyl)-1H-pyrazol-4-yl)pyrimidin-4(3H)-one] |
| 103 nM |  | Cc1nc(-c2cnn(C(C)c3ccc(OC(F)(F)F)cc3)c2)cc(=O)[nH]1 (single isomer, unassigned) [Example 127, (R)- or (S)-2-methyl-6-(1-(1-(4-(trifluoromethoxy)phenyl)ethyl)-1H-pyrazol-4-yl)pyrimidin-4(3H)-one] |
|  | 1240 nM | Cc1ccc(C(C)n2cc(-c3cc(=O)[nH]c(C)n3)cn2)cc1 (stereo not drawn) [Example 153, 2-methyl-6-(1-(1-(p-tolyl)ethyl)-1H-pyrazol-4-yl)pyrimidin-4(3H)-one] |
| 8.5 nM | 22 nM | COc1ccc(Cc2nc(-c3cnn(C(C)c4ccc(S(F)(F)(F)(F)F)cc4)c3)cc(=O)[nH]2)cc1OC (single isomer, unassigned) [Example 65, (S)- or (R)-2-(3,4-dimethoxybenzyl)-6-(1-(1-(4-(pentafluorosulfanyl)phenyl)ethyl)-1H-pyrazol-4-yl)pyrimidin-4(3H)-one 4(3H)-one] |
|  | 52.5 nM | Cc1nc(-c2cnn(C(C)c3ccc(C4CC4)cc3C)c2)cc(=O)[nH]1 (single isomer, unassigned) [Example 94, (S)- or (R)-6-(1-(1-(4-cyclopropyl-2-methylphenyl)ethyl)-1H-pyrazol-4-yl)-2-methylpyrimidin-4(3H)-one] |
| 38.5 nM |  | COc1ccc(Cc2nc(-n3ccc(C(C)c4ccc(C(F)(F)F)cc4)n3)cc(=O)[nH]2)cc1OC (single isomer, unassigned) [Example 133, (R)- or (S)-2-(3,4-dimethoxybenzyl)-6-(3-(1-(4-(trifluoromethyl)phenyl)ethyl)-1H-pyrazol-1-yl)pyrimidin-4(3H)-one] |
| 0.4 nM | 1 nM | COc1ccc(Cc2nc(-n3cc(C(C)c4ccc(C(F)(F)F)cc4)cn3)cc(=O)[nH]2)cc1OC (stereo not drawn) [Example 137, 2-(3,4-dimethoxybenzyl)-6-(4-(1-(4-(trifluoromethyl)phenyl)ethyl)-1H-pyrazol-1-yl)pyrimidin-4(3H)-one] |
|  | 10.4 nM | CCc1ccc(C(C)n2cc(-c3cc(=O)[nH]c(C)n3)cn2)c(Cl)c1 (single isomer, unassigned) [Example 99, (R)- or (S)-6-(1-(1-(2-chloro-4-ethylphenyl)ethyl)-1H-pyrazol-4-yl)-2-methylpyrimidin-4(3H)-one] |

The next lines start with the compound.

| Compound | Ki [1] | Ki [2] |
| --- | --- | --- |
| Cc1nc(-c2cc([C@H](C)c3ccc(C(F)(F)F)cc3)[nH]n2)cc(=O)[nH]1 (single isomer, unassigned) [Example 24] | 81 nM |  |
| Cc1nc(-n2cc([C@H](C)c3ccc(C(F)(F)F)cc3)cn2)cc(=O)[nH]1 (single isomer, unassigned) [Example 4] | 14.4 nM | 18.2 nM |
| Cc1nc(-n2cc(C(C)c3ccc(C4(C)CC4)cc3)cn2)cc(=O)[nH]1 (stereo not drawn) [Example 40, 2-methyl-6-(4-(1-(4-(1-methylcyclopropyl)phenyl)ethyl)-1H-pyrazol-1-yl)pyrimidin-4(3H)-one] | 197 nM |  |
| Cc1nc(-n2cc([C@](C)(O)c3ccc(C(F)(F)F)cc3F)cn2)cc(=O)[nH]1 (single isomer, unassigned) [Example 16] | 47.1 nM |  |
| Cc1nc(-n2cc([C@H](CO)c3ccc(C(F)(F)F)cc3F)cn2)cc(=O)[nH]1 (single isomer, unassigned) [Example 20] | 16.8 nM | 32.3 nM |
| Cc1nc(-n2cc([C@H](CO)c3ccc(C(F)(F)F)cc3F)cn2)cc(=O)[nH]1 (single isomer, unassigned) [Example 19] | 85 nM |  |
| Cc1nc(-n2cc(C(C)c3ccc(C(F)(F)F)cc3F)cn2)cc(=O)[nH]1 (single isomer, unassigned) [Example 52, (R)- or (S)-6-(4-(1-(2-fluoro-4-(trifluoromethyl)phenyl)ethyl)-1H-pyrazol-1-yl)-2-methylpyrimidin-4(3H)-one] | 4.9 nM | 12.3 nM |
| CCc1nc(-c2cnn(C(C)c3ccc(C(F)(F)F)cc3F)c2)cc(=O)[nH]1 (stereo not drawn) [Example 36, 2-ethyl-6-(1-(1-(2-fluoro-4-(trifluoromethyl)phenyl)ethyl)-1H-pyrazol-4-yl)pyrimidin-4(3H)-one] |  | 17.2 nM |
| Cc1nc(-n2cc([C@]3(c4ccc(C(F)(F)F)cc4)CCCO3)cn2)cc(=O)[nH]1 (single isomer, unassigned) [Example 21] | 199 nM |  |
| Cc1nc(-c2cnn(C(C)c3ccc(S(F)(F)(F)(F)F)cc3)c2)cc(=O)[nH]1 (single isomer, unassigned) [Example 63, (S)- or (R)-2-methyl-6-(1-(1-(4-(pentafluorosulfanyl)phenyl)ethyl)-1H-pyrazol-4-yl)pyrimidin-4(3H)-one] | 46.5 nM |  |
| COc1ccc(Cc2nc(-c3cnn(C(C)c4ccc(C(F)(F)F)cc4)c3)cc(=O)[nH]2)cc1OC (single isomer, unassigned) [Example 61, (S)- or (R)-2-(3,4-dimethoxybenzyl)-6-(1-(1-(4-(trifluoromethyl)phenyl)ethyl)-1H-pyrazol-4-yl)pyrimidin-4(3H)-one] | 0.9 nM | 2.4 nM |
| Cc1nc(-c2cnn(C(C)c3ccc(C(F)(F)F)cc3C)c2)cc(=O)[nH]1 (single isomer, unassigned) [Example 57, (S)- or (R)-2-methyl-6-(1-(1-(2-methyl-4-(trifluoromethyl)phenyl)ethyl)-1H-pyrazol-4-yl)pyrimidin-4(3H)-one] | 6.8 nM | 16.4 nM |
| Cc1nc(-n2cc(C(C)c3ccc(C4CC4)cc3)cn2)cc(=O)[nH]1 (stereo not drawn) [Example 39, 6-(4-(1-(4-cyclopropylphenyl)ethyl)-1H-pyrazol-1-yl)-2-methylpyrimidin-4(3H)-one] | 35.3 nM |  |
| CC(c1ccc(C(F)(F)F)cc1F)n1cc(-c2cc(=O)[nH]c(C3CC3)n2)cn1 (stereo not drawn) [Example 10] |  | 19.5 nM |
| Cc1nc(-n2cc(C3(C)OCc4cc(C(F)(F)F)ccc43)cn2)cc(=O)[nH]1 (single isomer, unassigned) [Example 28] | 72 nM |  |
| Cc1nc(-c2cc([C@H](C)c3ccc(C(F)(F)F)cc3)[nH]n2)cc(=O)[nH]1 (single isomer, unassigned) [Example 23] | 19.4 nM |  |
